In the assay the target is PIK3CA (human) (UniProt P42336). Description: Assessment of PIK3CA Kinase Activity.

Structures are written as SMILES.

The IC50 is the point on the concentration scale where inhibition reaches its midpoint. Read a high IC50 as weaker potency in that assay.

Sequence of PIK3CA (human) (P42336 whole entry, looked up): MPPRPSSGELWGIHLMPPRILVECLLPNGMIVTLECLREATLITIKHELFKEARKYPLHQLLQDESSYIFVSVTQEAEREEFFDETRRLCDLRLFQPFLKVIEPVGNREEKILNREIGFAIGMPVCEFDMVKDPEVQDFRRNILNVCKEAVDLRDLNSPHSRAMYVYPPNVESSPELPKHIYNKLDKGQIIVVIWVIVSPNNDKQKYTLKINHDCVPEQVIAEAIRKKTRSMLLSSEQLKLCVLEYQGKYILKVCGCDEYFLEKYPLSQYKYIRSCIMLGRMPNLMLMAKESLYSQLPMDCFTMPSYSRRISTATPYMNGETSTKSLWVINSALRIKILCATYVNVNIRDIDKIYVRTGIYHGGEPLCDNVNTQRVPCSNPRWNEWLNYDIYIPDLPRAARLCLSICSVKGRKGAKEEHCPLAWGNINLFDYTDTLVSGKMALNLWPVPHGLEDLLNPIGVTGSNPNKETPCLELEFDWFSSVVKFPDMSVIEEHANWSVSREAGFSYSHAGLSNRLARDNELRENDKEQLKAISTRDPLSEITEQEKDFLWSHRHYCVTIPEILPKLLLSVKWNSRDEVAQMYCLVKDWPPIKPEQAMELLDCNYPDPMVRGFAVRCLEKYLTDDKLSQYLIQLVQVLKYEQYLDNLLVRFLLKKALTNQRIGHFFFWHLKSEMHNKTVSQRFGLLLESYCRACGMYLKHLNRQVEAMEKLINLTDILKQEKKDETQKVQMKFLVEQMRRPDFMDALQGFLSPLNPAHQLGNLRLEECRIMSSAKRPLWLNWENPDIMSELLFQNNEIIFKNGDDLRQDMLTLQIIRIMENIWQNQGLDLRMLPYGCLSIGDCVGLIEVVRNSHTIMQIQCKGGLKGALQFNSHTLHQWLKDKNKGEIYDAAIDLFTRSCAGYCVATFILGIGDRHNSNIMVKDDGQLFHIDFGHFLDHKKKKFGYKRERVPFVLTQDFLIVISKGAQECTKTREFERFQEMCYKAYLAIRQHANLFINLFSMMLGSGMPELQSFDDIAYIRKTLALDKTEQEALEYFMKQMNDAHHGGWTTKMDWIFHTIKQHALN

`CNC(=S)Nc1cnc2ccc(-c3ccc(O)c(OC)c3)nc2n1`: the IC50 is less than 1000 nM.

For `O=C(Nc1cnc2ccc(-c3cc(Cl)c(O)c(Cl)c3)nc2n1)NC1CCCC1`, the IC50 was less than 1000 nM. The result for `COc1cc(-c2ccc3ncc(NC(=O)Nc4ccncc4)nc3n2)ccc1O` reads less than 1000 nM. The result for `CCNC(=O)Nc1ccc2ncc(Nc3cccc(OC(F)F)c3)nc2n1` reads less than 5000 nM.

`CCNC(=O)Nc1cnc2ccc(-c3ccc(O)c(OC)c3)nc2n1`: the 50% inhibitory concentration (IC50) is less than 500 nM. The result for `CCNC(=O)Nc1cnc2ccc(-c3ccc(O)c(Cl)c3)nc2n1` reads less than 5000 nM; that for `CNC(=O)Nc1cnc2ccc(-c3ccc(OC)c(OC)c3)nc2n1`, less than 5000 nM; that for `CCNC(=S)Nc1ccc2ncc(Nc3cc(OC)c(OC)c(OC)c3)nc2n1`, less than 1000 nM. Next, `CCNC(=O)Nc1ccc2ncc(-c3ccc(OC)c(O)c3)nc2n1`: less than 5000 nM. Next, `COc1cc(-c2ccc3ncc(NC(=O)NC4CCCC4)nc3n2)ccc1O`: less than 1000 nM. With `COc1cc(-c2ccc3ncc(NC(=O)Nc4cccs4)nc3n2)ccc1O`, the concentration for half-maximal inhibition (IC50) was less than 1000 nM. The result for `CCNC(=S)Nc1ccc2ncc(Nc3ccc(OC)c(O)c3)nc2n1` reads less than 1000 nM; that for `CCNC(=O)Nc1ccc2ncc(-c3ccc(OC(C)=O)c(OC)c3)nc2n1`, less than 5000 nM; that for `COc1cc(-c2ccc3ncc(NC(=O)NC4CCN(C(=O)C(F)(F)F)CC4)nc3n2)ccc1O`, less than 1000 nM.

`COc1cc(Nc2cnc3ccc(NC(=S)NC4CCCC4)nc3n2)cc(OC)c1OC`: the IC50 was less than 1000 nM. Next, `COc1cc(-c2ccc3ncc(NC(=O)NCCCl)nc3n2)ccc1O`: less than 1000 nM. Next, `CCNC(=O)Nc1ccc2ncc(Nc3cccc(O)c3)nc2n1`: less than 5000 nM; `CC(C)(C)NC(=O)Nc1cnc2ccc(-c3cc(Cl)c(O)c(Cl)c3)nc2n1`: less than 5000 nM. The result for `CCNC(=O)Nc1ccc2ncc(Nc3ccccc3O)nc2n1` reads less than 5000 nM; that for `CCNC(=O)Nc1cnc2ccc(-c3cc(C)c(O)c(C)c3)nc2n1`, less than 5000 nM; that for `CCNC(=O)Nc1ccc2ncc(Nc3ccc(O)c(C(=O)OC)c3)nc2n1`, less than 1000 nM.

Values taken from the Kinase Knowledgebase extract (Sharma et al. 2016).
